Key:
[1] = tested on: human vessels in the tumors; assay: Count of human vessels in tumors after therapy; assay type: in vivo; conditions: large tumors at end of experiment of FIG. 7
Excerpt: (§1) Large tumors of two different sizes (i.e., 350-450 mm^3 and 100-250 mm^3) were obtained from each group of mice for immunostaining and vessel counting. Sections of the tumors were stained with individual mAbs or a mixture of anti-human CD105 and CD31 mAbs and a mixture of anti-mouse CD105 and CD31 mAbs as described above. Human and mouse vessels were counted separately as described above. An average of vessel counts in the two tumors was compared between different groups.
(§2) Human and murine blood vessels were immunostained in the large human tumors from the chimera mice after the mice were sacrificed at the end of experiment shown in FIG. 7. Number of murine vessels in the tumors was 52, 47, 47 and 34 per 100× field for groups A, B, C and D, respectively (see FIG. 7 for the groups). Therefore, SN6j (group B) and CPA (group C) caused only a small decrease (approximately 10%) in the number of murine vessels in the tumors compared with the control (group A). However, combination of SN6j and CPA (group D) caused a larger (i.e., 35%) decrease in the number of murine vessels. […] CPA was not effective for inhibiting human vessels and only weakly suppressive against murine vessels.

[2] = tested on: murine vessels in the tumors; assay: Count of murine vessels in tumors after therapy; assay type: in vivo, mouse; conditions: large tumors at end of experiment of FIG. 7
Excerpt: as §1, §2

Colon-26 tumors = assay: Therapy of established Colon-26 tumors in BALB/c mice; assay type: in vivo; conditions: SN6j 1.8 μg/g i.v., DOX 0.5 μg/g i.p.
Procedure: Antiangiogenic Therapy of Preformed Colon Tumors in Mice. Colon-26 cells (1.25×10^5 cells in 0.1 ml PBS) were inoculated subcutaneously (s.c.) into left flank of BALB/c mice. […] Doxorubicin (0.5 μg/g body weight) was injected intraperitoneally (i.p.) into mice. The administration was repeated three times at 4 days intervals.
Follow-up of Treatment Efficacy.
SN6j (1.8 μg/g body weight) and MOPC195v (1.8 μg/g body weight) were injected i.v. while DOX (0.5 μg/g body weight) was injected i.p. The injectections were repeated three times at 4 days intervals.
Details of the analysis were described by Yokoyama et al. (31), Yu et al. (32) and us (25). […] This improvement persisted until the end of the therapy experiment (Table 3).

Row | SMILES | number of human vessels in the tumors per 100× field [1] | decrease in the number of murine vessels compared with the control [2] | number of murine vessels in the tumors per 100× field [2] | Fractional tumor volume (FTV) relative to untreated controls (Colon-26 tumors; Day 4 after tumor cell inoculation, all mice) | Fractional tumor volume (FTV) relative to untreated controls (Colon-26 tumors; Day 4 after tumor cell inoculation, tumors of >4 mm^3 at onset of therapy) | Fractional tumor volume (FTV) relative to untreated controls (Colon-26 tumors; Day 7 after tumor cell inoculation, all mice) | Fractional tumor volume (FTV) relative to untreated controls (Colon-26 tumors; Day 7 after tumor cell inoculation, tumors of >4 mm^3 at onset of therapy) | Fractional tumor volume (FTV) relative to untreated controls (Colon-26 tumors; Day 9 after tumor cell inoculation, all mice) | Fractional tumor volume (FTV) relative to untreated controls (Colon-26 tumors; Day 9 after tumor cell inoculation, tumors of >4 mm^3 at onset of therapy) | Fractional tumor volume (FTV) relative to untreated controls (Colon-26 tumors; Day 11 after tumor cell inoculation, all mice) | Fractional tumor volume (FTV) relative to untreated controls (Colon-26 tumors; Day 11 after tumor cell inoculation, tumors of >4 mm^3 at onset of therapy) | Fractional tumor volume (FTV) relative to untreated controls (Colon-26 tumors; Day 13 after tumor cell inoculation, all mice) | Fractional tumor volume (FTV) relative to untreated controls (Colon-26 tumors; Day 13 after tumor cell inoculation, tumors of >4 mm^3 at onset of therapy) | Fractional tumor volume (FTV) relative to untreated controls (Colon-26 tumors; Day 15 after tumor cell inoculation, all mice) | Fractional tumor volume (FTV) relative to untreated controls (Colon-26 tumors; Day 15 after tumor cell inoculation, tumors of >4 mm^3 at onset of therapy) | Fractional tumor volume (FTV) relative to untreated controls (Colon-26 tumors; Day 17 after tumor cell inoculation, all mice) | Fractional tumor volume (FTV) relative to untreated controls (Colon-26 tumors; Day 17 after tumor cell inoculation, tumors of >4 mm^3 at onset of therapy) | Fractional tumor volume (FTV) relative to untreated controls (Colon-26 tumors; Day 19 after tumor cell inoculation, all mice) | Fractional tumor volume (FTV) relative to untreated controls (Colon-26 tumors; Day 19 after tumor cell inoculation, tumors of >4 mm^3 at onset of therapy)
1 | O=P1(N(CCCl)CCCl)NCCCO1 (stereo not shown) [CPA, cyclophosphamide] | 36 per 100× field | approximately 10% | 47 per 100× field |  |  |  |  |  |  |  |  |  |  |  |  |  |  |  | 
2 | COc1cccc2c1C(=O)c1c(O)c3c(c(O)c1C2=O)C[C@@](O)(C(=O)CO)C[C@@H]3O[C@H]1C[C@H](N)[C@H](O)[C@H](C)O1 [DOX, Doxorubicin] |  |  |  | 0.954 | 0.979 | 0.741 | 0.753 | 0.895 | 0.954 | 0.956 | 1.018 | 0.860 | 1.009 | 0.976 | 1.159 | 0.813 | 0.954 | 0.873 | 1.101
